Assay results reported in patent EP4772500A1, “NOVEL ISOXAZOLE COMPOUND AS TM4SF5-SPECIFIC INHIBITOR AND USE THEREOF” (Seoul National University R&DB Foundation, priority 2023, dated 2025).

Key:
TM4SF5 = molecular target: T1, TM4SF5 (Homo sapiens, UniProt O14894); test: 1,2-3H-Cholesterol binding to pulled-down TM4SF5; design: expressed in transfected cells; captured on streptavidin agarose; details: 1,2-3H-Cholesterol (50 µM); for binding of TM4SF5 to cholesterol: drug 2.5 µM, 1 hour (FIG. 19c); for IC50: Huh7KO Strep-TM4SF5 (FIG. 19e), read-out: concentration at which binding between TM4SF5 and cholesterol was reduced by 50%
T1 sequence (O14894 1-197): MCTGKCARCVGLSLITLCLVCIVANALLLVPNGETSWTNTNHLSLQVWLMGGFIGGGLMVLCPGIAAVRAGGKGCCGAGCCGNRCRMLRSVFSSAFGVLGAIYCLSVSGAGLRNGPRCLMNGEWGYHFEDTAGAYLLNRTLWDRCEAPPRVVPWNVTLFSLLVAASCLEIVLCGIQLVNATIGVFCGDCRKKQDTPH
Experimental: (a) Expression vectors for a control vector, TM4SF1, TM4SF5 WT, and R113Q, C118/145A, H127A, and N138A mutants of TM4SF5 were injected into the HEK293FT cell line, which was confirmed not to express TM4SF5, and allowed to express for 48 hours. (b) Huh7KO cell lines, in which TM4SF5 was knocked out in Huh7, were stably infected with a retrovirus encoding pBabe-EV or pBabe-TM4SF5-HA. […] (d) Strep-EV, Strep-PD-L1 WT, and 3NQ (N192/200/219Q) and 4NQ (N35/192/200/219Q) N-glycosylation mutants were injected into Huh7 cells to be expressed. (e) Strep-EV and Strep-TM4SF5 expression vectors were injected into Huh7KO cells and allowed to express for 48 hours. (a-e) After obtaining cell extracts, TM4SF5-strep, TM4SF5-HA, or PD-L1-strep was pulled down with streptavidin agarose resin or anti-HA antibody from extracts containing 0.2, 0.25, or 1.0 mg of protein for each experimental condition. Each of the pulled-down beads was treated with ^14C-labelled ST-5-002 (10, 25, or various indicated concentrations, µM) for 1 hour in the presence or absence of 400 µM of cold ST-5-002 (a-b). Alternatively, they were treated with 1,2-^3H-Cholesterol (50 µM) alone or together with ST-3-001 (negative control compound), ST-5-001, or ST-5-002 (2.5 µM each) for 1 hour (c-e). For the experimental samples of each condition, radioactive isotope values were repeatedly measured using a TriCarb scintillation counter (PerkinElmer, Waltham, MA).

TM4SF5 and PD-L1 = molecular target: T2, TM4SF5 and PD-L1 (Homo sapiens, UniProt O14894); test: Pulldown: binding between TM4SF5 and PD-L1; format: cell-based; details: 2.5 µM, 24 hours, SNU449 (FIG. 17c)
T2 construct: expressed in transfected cells; host or cells: SNU449 cells stably expressing TM4SF5, additionally transfected with PD-L1-HA cDNA
T2 sequence (O14894 1-197): T1 sequence (O14894 1-197)
Experimental: Cells were cultured to ~60% density in a cell incubator at 37°C and 5% CO2, and then transfected using PEI and cultured in a cell incubator at 37°C for two days. After cultivation, cell extracts were obtained by the method described above. After precipitating a desired protein from the cell extracts using an immunoprecipitation method, the binding proteins were identified by the Western blot technique described above. Specifically, cells cultured in a 100 mm cell culture dish for two days were washed twice with PBS, and protease inhibitor cocktails (GenDepot, USA) were added to 500 µl of immunoprecipitation lysis buffer (0.5% Triton X-100 or Brij 58, 40 mM HEPES, 150 mM NaCl, 1 mM EDTA, pH 7.4), followed by treatment at 4°C for 15 minutes. After collecting the cells, centrifugation was performed at 12,000x g at 4°C for 15 minutes, and the supernatant was transferred to a new microcentrifuge tube to obtain a cell extract. Proteins therein were quantified using a BCA reagent (Thermo Scientifics, USA). An electrophoresis sample was prepared by adding 4x laemmli sample buffer to a portion of the quantified sample and boiling at 100°C for 5 minutes. For immunoprecipitation, Streptavidin Agarose Resin (Thermo Fisher Scientific) or anti-HA antibody-coated Sepharose beads were added in proportion to the quantified protein amount, followed by rotation at 4°C for 4 hours, and then centrifugation was performed at 7,000x g at 4°C for 5 minutes and the supernatant was discarded. […]
(a-b) The same number of SNU449-EV or SNU449-TM4SF5 cells were transferred to culture vessels and cultured overnight. […] From the cell extracts, Strep-TM4SF5 was pulled down with strep-agarose beads, and then Western blotting was performed using antibodies against the indicated proteins, or the intracellular localization and expression level of TM4SF5 (red fluorescence) and PD-L1 (green fluorescence) were confirmed with a fluorescence microscope through immunostaining along with DNA staining using DAPI.

Row | binding of TM4SF5 to cholesterol (TM4SF5) | binding between TM4SF5 and PD-L1 (TM4SF5 and PD-L1) | IC50 (TM4SF5) | SMILES
1 | not affected |  |  | COc1cccc(-c2cc(-c3ccc(NC(C)=O)cc3)no2)c1 [ST-3-001, N-(4-(5-(3-methoxyphenyl)isoxazole-3-yl)phenyl)acetamide]
2 | inhibited | decreased and inhibited | 6.15 µM | CC(=O)Nc1ccc(-c2cc(-c3ccc(O)cc3)no2)cc1 [ST-5-001, N-(4-(3-(4-hydroxyphenyl)isoxazole-5-yl)phenyl)acetamide]
3 | inhibited | decreased and inhibited | 0.787 µM | Cc1ccc(C(=O)Nc2ccc(-c3cc(-c4ccc(O)cc4)no3)cc2)cc1 [ST-5-002, N-(4-(3-(4-hydroxyphenyl)isoxazole-5-yl)phenyl)-4-methylbenzamide]
4 |  | inhibition |  | Cc1ccc(S(=O)(=O)Nc2ccc(C(=O)/C=C/c3ccc(O)cc3)cc2)cc1 [TSAHC, 4'-(p-toluenesulfonylamino)-4-hydroxychalcone, reference compound]
